Experimental data as given in BindingDB's records for doi:10.1021/jm00111a038 (Ici Pharmaceuticals Group, 1991).
pIC50: −log10 of the molar value.

Assay: Inhibition of 5-lipoxygenase in human whole blood.

pIC50	SMILES
5.20	CCCCCCCCCCOc1cccc(C(O)c2ncc(C)[nH]2)c1 (stereo not drawn)
5.15	Cc1cnc(C(O)c2cccc(OCc3ccc(-c4ccccc4)cc3)c2)[nH]1 (stereo not drawn)
5.29	OC(c1cccc(OCc2ccc3ccccc3c2)c1)c1nccs1 (stereo not drawn)
